Results: patent US8796279B2, “4′-demethylepipodophyllotoxin derivative, preparation method and use thereof” (Hubei University of Technology, priority 2010, dated 2014)
Where two headings read alike, the source gives them in different places.

Legend:
physchem = assay: physchem
Protocol: I mg of each of 4-(2,3,5,6-tetramethylpyrazin-1-yl)-4′-demethylepipodophyllotoxin, 4′-demethylepipodophyllotoxin and podophyllotoxin was respectively dissolved into 3 centrifuge tubes of 10 mL each containing 2 mL n-octanol and 2 mL biological brine, the tubes were capped tight, shook thoroughly for 10 min, and subsequently let stand for 20 min. 0.2 mL of the organic- and water phase were respectively pipetted into clean test tubes. Absorbance (A) values of the organic- and water phase were measured using UV method, respectively, using A to calculate the weights of the drugs dissolved in the organic- and water layer, Walcohol and Wwater, respectively. The operations were repeated 3 times, averages were calculated, lipid-water partition coefficients were calculated using Eq. 1:
[formula] where Walcohol and Wwater denote the measured weights of drugs in n-octanol- and water phase, respectively; Valcohol and Vwater denote volumes of n-octanol- and water phase, respectively. 3. Results

[1] = test system: human gastric cancer cell strain BGC-823; assay: BGC-823 tumor cell growth inhibition, MTT method; assay type: cell-based; details: read-out: half growth inhibition concentration (IC50)
[2] = test system: human pulmonary cancer cell strain A549; assay: A549 tumor cell growth inhibition, MTT method; details: read-out: half growth inhibition concentration (IC50)
[3] = HK-2 normal cell growth inhibition (cell toxicity), MTT method; assay type: cell-based, human; details: human, HK-2 cells (proximal tubule); HK-2 normal cells, MTT, 48 h; read-out: half growth inhibition concentration (IC50), cell toxicity
[4] = test system: human proximal tubule cell strain HK-2; assay: as above; assay type: cell-based; details: HK-2 normal cells, from IC50 values
HepG2 tumor cell strain = assay: HepG2 tumor cell growth inhibition, MTT method; details: for IC50: Homo sapiens, HepG2, 48 h, read-out: half growth inhibition concentration (IC50)
[5] = Homo sapiens, BGC-823 cells, MTT, 48 h

| Compound | logP (physchem) | IC50 [1, 5] [µM] | IC50 at 48 h [3] [nM] | IC50 ([2]; Homo sapiens, A549, 48 h) [nM] | IC50 (HepG2 tumor cell strain) [nM] | other results |
| --- | --- | --- | --- | --- | --- | --- |
| Cc1nc(C)c(C)nc1C [tetramethylpyrazine] | > 5 |  |  |  |  | lipid-water partition coefficient (logP) (physchem): >5 |
| COc1cc([C@@H]2c3cc4c(cc3[C@@H](O)[C@H]3COC(=O)[C@H]23)OCO4)cc(OC)c1O [4′-demethylepipodophyllotoxin] |  |  |  |  |  | IC50 ([1]; BGC-823 cells, MTT, 48 h): 398 µM; IC50 ([2]; A549 cells, MTT, 48 h): 450 nM |
| COc1cc([C@@H]2c3cc4c(cc3[C@@H]([n+]3c(C)c(C)nc(C)c3C)[C@H]3COC(=O)[C@H]23)OCO4)cc(OC)c1O [4-(2,3,5,6-tetramethylpyrazin-1-yl)-4′-demethylepipodophyllotoxin] | 0.66 | 0.06 | 240 | 230 | 290 | cell toxicity decreased in comparison with podophyllotoxin [4]: ~66 times; lipid water partition coefficient increased than 4′-demethylepipodophyllotoxin (physchem; from logP values): 16%; lipid water partition coefficient increased than podophyllotoxin (physchem; from logP values): 94%; inhibition activity raised in comparison with etoposide (HepG2 tumor cell strain; HepG2 cells, from IC50 values): 2.7 times |
| COc1cc([C@@H]2c3cc4c(cc3[C@@H](O[C@@H]3O[C@@H]5CO[C@@H](C)O[C@H]5[C@H](O)[C@H]3O)[C@H]3COC(=O)[C@H]23)OCO4)cc(OC)c1O [etoposide] |  | 14 |  | 165000 | 1060 |  |
| COc1cc([C@@H]2c3cc4c(cc3[C@H](O)[C@H]3COC(=O)[C@H]23)OCO4)cc(OC)c1OC [podophyllotoxin] | 0.34 |  | 3.5 |  |  | IC50 ([1]; Homo sapiens, BGC-823, 48 h): 529 µM |
